Measured values from patent US20260094266A1, “DIGITAL SYSTEM FOR CELL ASSAYS USING LABEL FREE MICROSCOPY” (NANOLIVE SA, priority 2022, published 2026).

Assays:
Format in all cases: cell-based
[1] = test system: 3T3-L1-derived preadipocyte cells; test: Live cell death assay (LCDA) benchmarked with live fluorescent cell death kit, camptothecin treatment; settings: 2.5 μM camptothecin added 4 hours before acquisition; imaged for 17.5 hours; versus without camptothecin
Source text: To validate the performance of the LCDA, the invention method was benchmarked with a state-of-the-art live fluorescent kit (FIG. 6). 3t3-derived preadipocytes were imaged on an optical diffraction tomography system combining RI recording and epifluorescence, with and without addition of camptothecin, a proapoptotic drug (FIG. 6). Annexin V-Cy5 and Nuclear Green DCS1 were used as fluorescent markers to detect apoptosis and necrosis, respectively. The RI images of the kit-stained cells were also analyzed with the LCDA. The cell death information provided by the fluorescent signals contained within the RI segmentation masks was then compared, with the LCDA results (FIG. 6, E and F).
3T3-L1-derived preadipocyte cells were seeded in a 35 mm dish at ˜30,000 cells/ml and let to grow for 48 h in DMEM supplemented with 10% FBS. 4 hours before starting the acquisition, the cells were treated with 2.5 μM camptothecin (abcam—ab120115) to induce apoptosis. 10 minutes before starting the acquisition, Annexin V-Cy5 and Nuclear Green DCS1 (abcam—ab14147, ab138905) were added to the medium, following the supplier's protocol. […]
RI images were then analyzed and plotted with the LCDA module's features. Fluorescence was quantified by measuring the mean intensity in each cell using RI segmentations using an independent image analysis tool. […]

HeLa cells = test: LCDA quantification of Ebastine-induced cell death in HeLa cells (FIG. 7); settings: 50 uM Ebastin, treated right before acquisition; versus control well; 5 h post treatment
Source text: FIG. 7: Application of LCDA to quantify Ebastine-induced cell death—HeLa cells grown in two wells were used as (A) control and (B) treatment experiment.

[2] = test system: 3T3-L1-derived preadipocyte cells; test: LCDA quantification of Ebastin-induced cell death in 3T3-L1-derived preadipocytes; settings: 20 μM Ebastin added 1 hour before acquisition; versus untreated cells
Protocol: It was finally concluded by quantifying the capacity of another drug to kill cells, Ebastin, to validate the simplest of the uses of the LCDA. 3T3-L1-derived preadipocyte cells were seeded in 35 mm dish at ˜30,000 cells/ml and let to grow for 48 h in DMEM supplemented with 10% FBS.

Row | SMILES | death of cells (LCDA and Annexin V-Cy5 / Nuclear Green DCS1 fluorescence) [1] | number of dead cells predicted over time (cell death rate) (HeLa cells) | induced cell death over time (LCDA) [2]
1 | CC[C@@]1(O)C(=O)OCc2c1cc1n(c2=O)Cc2cc3ccccc3nc2-1 [camptothecin] | accelerates greatly the death of cells and results in the whole cell population dying by the end of the experiment | – | –
2 | CC(C)(C)c1ccc(C(=O)CCCN2CCC(OC(c3ccccc3)c3ccccc3)CC2)cc1 [Ebastin] | – | higher cell death rate in the treated condition already at 5 h post treatment | treated cells show a very clear curve of induced cell death
